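Five concentrations, 48 hours, 96-well plates. GI50 is the concentration that inhibits growth by half.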 Active and inactive are the calls of the source. Rule as the data show it: active = GI50 up to about 1.1 µM and inactive = higher.
What was measured:
Experiment in all cases: NCI tumour cell line growth inhibition, 48 h
[1] = tested on: SK-MEL-28
[2] = tested on: HOP-62
[3] = tested on: LOX IMVI
[4] = tested on: SF-268
[5] = tested on: UO-31
[6] = tested on: A549
[7] = tested on: COLO 205
[8] = tested on: MDA-N
[9] = tested on: OVCAR-5
[10] = tested on: IGROV-1
[11] = tested on: SW-620
[12] = tested on: U-251
[13] = tested on: RXF 393
[14] = tested on: MDA-MB-435
[15] = tested on: A498
[16] = tested on: SK-MEL-5
[17] = tested on: 786-0
[18] = tested on: PC-3
[19] = tested on: SN12C
[20] = tested on: RPMI-8226

Measured: GI50

Cc1ccc(-c2nnc(-c3ccc4ccccc4c3)o2)cc1
inactive: [1] 33.3 µM | [2] 18 µM | [3] 11.3 µM | [4] 9.31 µM | [5] 15.1 µM | [6] > 100 µM | [7] > 100 µM | [8] 17.5 µM | [9] > 61.8 µM | [10] > 91.2 µM | [11] 20 µM | [12] 27.7 µM | [13] 5.87 µM | [14] 8.11 µM | [15] > 100 µM | [16] > 96.2 µM | [17] 11.9 µM | [18] 52.2 µM | [19] 14.6 µM | [20] 6.78 µM

NC(Cc1ccc(O)cn1)C(=O)NC(C(=O)O)c1ccccc1 (stereo not given)
inactive: [1] > 100 µM | [2] > 100 µM | [3] > 100 µM | [4] > 100 µM | [5] > 100 µM | [6] > 100 µM | [7] > 100 µM | [8] > 100 µM | [9] > 100 µM | [10] > 100 µM | [11] > 100 µM | [12] > 100 µM | [13] > 100 µM | [14] > 100 µM | [15] > 100 µM | [16] > 100 µM | [17] > 100 µM | [18] > 100 µM | [19] > 100 µM | [20] > 100 µM

C=C(C)[C@@H]1CC=C(CO)CC1 [PERILLYL ALCOHOL]
inactive: [1] 201 µM | [2] 184 µM | [3] 195 µM | [4] 84.1 µM | [5] 410 µM | [6] 126 µM | [7] 199 µM | [8] > 10 µM | [9] 169 µM | [10] 574 µM | [11] 637 µM | [12] 125 µM | [13] 93.8 µM | [14] > 10 µM | [15] 548 µM | [16] 110 µM | [17] 195 µM | [18] > 10 µM | [19] 555 µM | [20] > 10 µM
